{"source": "patent US11466024B2", "about": "“Bicylic compound acting as an inhibitor” (CHIA TAI TIANQING PHARMACEUTICAL GROUP CO., LTD., priority 2017, dated 2022)", "key": {"RORC2-LBD": {"molecular_target": "T1, RORC2-LBD (Homo sapiens, UniProt P51449)", "T1 sequence (P51449 269-508 limits assumed)": "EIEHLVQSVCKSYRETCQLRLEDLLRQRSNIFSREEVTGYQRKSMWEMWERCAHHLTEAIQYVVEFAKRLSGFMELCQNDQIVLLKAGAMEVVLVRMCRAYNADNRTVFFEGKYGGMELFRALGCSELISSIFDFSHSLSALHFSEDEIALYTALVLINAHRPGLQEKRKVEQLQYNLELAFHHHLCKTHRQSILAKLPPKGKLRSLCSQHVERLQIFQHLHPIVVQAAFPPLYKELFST", "assay": "In vitro test for inhibitory activity on RORγ: TR-FRET screening (RORC2-LBD / SRC1 peptide interaction)", "format": "biochemical", "details": "Value of the concentration required for 50% inhibition (EC50) of RORγ, 15 nM RORc-LBD, 200 nM SRC1 peptide, 4° C. overnight", "source_text": "The compounds of the present application was able to regulate (inhibit) the bioactivity of the nuclear receptor RORγ, and the strength of this regulatory (inhibitory) effect could be evaluated by a TR-FRET (time-resolved fluorescence resonance energy transfer) screening system. Nuclear receptor cofactors (co-activators and co-inhibitors) could regulate the transcription of a target gene by the interaction with nuclear receptors. If a ligand (test compound) affected the interaction between the nuclear receptors and the cofactors, this ligand (test compound) was able to regulate the transcription of the corresponding gene.\nThis method adopted the TR-FRET (time-resolved fluorescence resonance energy transfer) technique to determine the ability of a compound to regulate the interaction between the polypeptide indirectly bound to APC […] (namely, APC was indirectly bound to the polypeptide by binding to Streptavidin and biotin) and RORC2-LBD linked to a europium (Eu)-labeled anti-His antibody (Perkin Elmer #AD0111). In the absence of the compound, RORC2 could bind to an APC-modified polypeptide. If the compound was an agonist, it could enhance the interaction between RORC2 and the APC-modified polypeptide after binding to RORC2. On the contrary, if the compound was an inverse agonist, it could inhibit the interaction between RORC2 and the APC-modified polypeptide after binding to RORC2. When the APC-modified polypeptide and the Eu-labeled anti-His antibody-RORC2-LBD complex approached to each other and the distance therebetween was within a certain distance, energy transfer could occur and a TR-FRET signal was generated.\nA buffer solution comprising 50 mM Tris (pH 7.0), 50 mM KCl, 1 mM Na-EDTA, 0.01% BSA (0.1 mg/ml), and 0.1 mM DTT was freshly formulated prior to the experiment.\n2.3 Formulation of a RORγ-containing working solution. Prior to the test, a working solution containing 1.67 nM Eu/anti-His and 0.75 μl/well of SF9 cell lysate was freshly formulated, and was placed on ice before use. 25.05 nM of RORγ was added to the working solution.\n2.5 Ten concentration gradients were set for each test compound, and duplicate wells were set for each concentration. The formulating method of the test compounds was as follows: […]\n2) 15 μl of the RORγ-containing working solution was added to columns 1 to 21 of the tested 384-well plate (the final concentration of Eu/anti-His was 1 nM, and the final concentration of RORg was 15 nM); and […]\n9) data analysis was performed using the ratio of the numerical value detected at an emission wavelength of 665 nm to the numerical value detected at an emission wavelength of 615 nm. […]"}, "hERG potassium channel": {"molecular_target": "hERG potassium channel (Homo sapiens, UniProt Q12809)", "sequence (Q12809 whole entry)": "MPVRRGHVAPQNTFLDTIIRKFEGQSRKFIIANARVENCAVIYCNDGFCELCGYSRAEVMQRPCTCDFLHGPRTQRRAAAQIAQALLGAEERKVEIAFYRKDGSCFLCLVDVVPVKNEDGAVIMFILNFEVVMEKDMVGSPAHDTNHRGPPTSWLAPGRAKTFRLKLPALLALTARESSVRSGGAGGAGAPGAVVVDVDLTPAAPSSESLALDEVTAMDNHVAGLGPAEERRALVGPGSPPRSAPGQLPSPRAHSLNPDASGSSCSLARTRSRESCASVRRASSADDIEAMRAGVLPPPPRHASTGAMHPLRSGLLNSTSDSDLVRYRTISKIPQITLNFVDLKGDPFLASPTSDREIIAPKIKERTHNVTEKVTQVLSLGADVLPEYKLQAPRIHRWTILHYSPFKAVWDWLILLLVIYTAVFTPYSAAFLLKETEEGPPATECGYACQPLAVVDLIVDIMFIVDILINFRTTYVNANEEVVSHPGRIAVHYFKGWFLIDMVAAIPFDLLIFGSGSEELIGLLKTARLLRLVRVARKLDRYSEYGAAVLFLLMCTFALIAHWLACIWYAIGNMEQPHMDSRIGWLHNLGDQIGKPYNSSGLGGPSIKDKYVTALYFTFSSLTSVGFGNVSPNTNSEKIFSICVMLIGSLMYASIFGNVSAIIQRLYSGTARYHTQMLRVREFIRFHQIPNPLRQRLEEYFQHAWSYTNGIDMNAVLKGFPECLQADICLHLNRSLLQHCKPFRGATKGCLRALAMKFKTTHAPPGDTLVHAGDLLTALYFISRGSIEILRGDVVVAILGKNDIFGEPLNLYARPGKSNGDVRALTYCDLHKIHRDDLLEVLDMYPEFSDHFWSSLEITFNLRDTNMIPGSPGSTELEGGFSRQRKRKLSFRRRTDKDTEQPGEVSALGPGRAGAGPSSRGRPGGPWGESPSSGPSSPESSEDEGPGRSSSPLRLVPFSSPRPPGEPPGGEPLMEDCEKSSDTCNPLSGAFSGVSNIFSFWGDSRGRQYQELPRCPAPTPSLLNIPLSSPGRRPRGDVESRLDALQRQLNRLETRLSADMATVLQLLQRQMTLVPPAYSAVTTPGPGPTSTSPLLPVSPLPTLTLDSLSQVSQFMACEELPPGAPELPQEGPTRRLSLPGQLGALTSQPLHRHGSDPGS", "assay": "Inhibition test of hERG potassium channel (QPatch, CHO-hERG cells)", "protocol": "CHO-hERG cells (from Shanghai Institute of Materia Medica, Chinese Academy of Sciences) were cultured in a 175 cm^2 culture flask. When the cell density reached 60% to 80%, the culture medium was removed, the cells were washed once with 7 mL of PBS, and then 3 mL of Detachin was added for cell detachment. After complete cell detachment, 7 mL of culture medium were added for neutralization, the mixture was then centrifuged, the supernatant was aspirated, and another 5 mL of culture medium was added for re-suspension, so as to ensure that the cell density was 2×10^6/mL to 5×10^6/mL.\nThe single-cell giga-seal and the formation of whole-cell mode were both completed automatically by a Q patch instrument. After a whole-cell recording mode was achieved, the cells were clamped at −80 mV, exposed to a front voltage of −50 mV for 50 ms prior to a depolarizing stimulus (5 s, +40 mV), and then repolarized to −50 mV for 5 s, followed by a recovery to −80 mV. This voltage stimulation was applied every 15 s and recorded for 2 minutes, and the extracellular fluid was then administered, followed by a record lasting for 5 minutes. Thereafter, the administration process was started. Starting from the lowest test concentration, the compounds were administered at each test concentration and the process lasted for 2.5 minutes. […] At least 3 cells (n≥3) were tested at each concentration.\n20 mM stock solution of the compound was diluted with the extracellular fluid, and 5 μL of the 20 mM stock solution of the compound was taken, added to 2495 μL of the extracellular fluid, and diluted by 500 times to 40 μM. Thereafter, the resulting mixture was serially and successively diluted by 3 times in an extracellular fluid containing 0.2% DMSO, so as to obtain a final concentration to be tested.\nThe experimental data was analyzed by XLFit software."}}, "data": [{"smiles": "CCS(=O)(=O)c1ccc(CNC(=O)c2cc3c(s2)C(C(C)C)N(C[C@H]2CC[C@H](C(F)(F)F)CC2)C3)nc1", "note": "(single isomer, unassigned) [Example 1]", "values": [{"measurement": "EC50", "setting": "RORC2-LBD", "value": "< 0.1", "unit": "µM"}, {"measurement": "IC50", "setting": "hERG potassium channel", "value": "> 40", "unit": "µM"}, {"measurement": "inhibition at 2.5 min, 40 μM", "setting": "hERG potassium channel; human", "value": 26.3, "unit": "%"}]}]}
